Source: patent US9394273B2, “Therapeutic prostaglandin receptor agonists” (Allergan, Inc., priority 2014, dated 2016)

Assays:
[1] = target: T1, prostaglandin EP4 receptor (Homo sapiens (Human), UniProt P35408); test: EP4 cAMP functional assay; type: cell-based
From the text: (§1) U.S. patent application publication No. 20070129552, published on Jun. 7, 2007, incorporated by reference herein, describes the methods used to obtain the in vitro data in Table 1 below.

[2] = target: T1, prostaglandin EP4 receptor; test: EP4 binding assay (Ki); settings: read-out: EP4 Ki EC50
From the text: as §1

EP2 [3] = target: T2, EP2 (Homo sapiens (Human), UniProt P43116); test: EP2 binding assay (Ki)
From the text: as §1

EP2 [4] = target: T2, EP2; test: EP2 cAMP functional assay; type: cell-based
From the text: as §1

EP3 = EP3 (Homo sapiens (Human), UniProt P43115); test: Other receptors FLIPR: EP3; type: cell-based; settings: NA undefined in patent
From the text: as §1

TP = TP (Homo sapiens (Human), UniProt P21731); test: Other receptors FLIPR: TP; type: cell-based; settings: NA undefined in patent
From the text: as §1

Chain of EP3 (P43115 whole entry): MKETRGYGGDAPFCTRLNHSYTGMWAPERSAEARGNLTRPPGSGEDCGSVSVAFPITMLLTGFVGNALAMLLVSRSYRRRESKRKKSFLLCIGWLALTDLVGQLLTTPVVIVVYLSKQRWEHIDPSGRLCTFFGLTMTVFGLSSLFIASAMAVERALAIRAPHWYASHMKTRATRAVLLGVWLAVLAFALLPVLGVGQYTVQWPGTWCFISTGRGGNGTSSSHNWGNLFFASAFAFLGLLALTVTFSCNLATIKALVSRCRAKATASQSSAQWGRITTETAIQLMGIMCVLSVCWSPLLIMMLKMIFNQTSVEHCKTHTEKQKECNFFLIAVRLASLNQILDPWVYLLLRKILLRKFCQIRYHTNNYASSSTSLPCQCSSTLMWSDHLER
Chain of TP (P21731 whole entry): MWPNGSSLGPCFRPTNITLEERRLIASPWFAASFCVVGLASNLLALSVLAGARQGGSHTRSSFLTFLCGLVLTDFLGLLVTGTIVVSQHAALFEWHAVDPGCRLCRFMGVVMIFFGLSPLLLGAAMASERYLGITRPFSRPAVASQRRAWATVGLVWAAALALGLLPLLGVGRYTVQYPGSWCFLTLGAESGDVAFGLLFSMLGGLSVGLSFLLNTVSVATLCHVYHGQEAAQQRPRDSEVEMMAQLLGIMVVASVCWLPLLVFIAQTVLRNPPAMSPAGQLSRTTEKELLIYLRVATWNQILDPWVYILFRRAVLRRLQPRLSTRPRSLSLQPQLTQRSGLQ
T2 sequence (P43116 whole entry): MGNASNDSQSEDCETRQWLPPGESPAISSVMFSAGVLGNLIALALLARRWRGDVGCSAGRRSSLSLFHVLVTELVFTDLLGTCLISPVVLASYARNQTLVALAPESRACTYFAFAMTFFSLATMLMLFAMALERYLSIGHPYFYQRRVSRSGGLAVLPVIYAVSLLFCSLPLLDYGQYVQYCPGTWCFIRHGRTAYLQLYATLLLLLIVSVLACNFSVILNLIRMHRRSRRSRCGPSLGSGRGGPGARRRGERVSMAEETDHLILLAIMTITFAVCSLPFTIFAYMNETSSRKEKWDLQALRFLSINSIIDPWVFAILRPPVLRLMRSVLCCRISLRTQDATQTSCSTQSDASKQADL
T1 sequence (P35408 whole entry): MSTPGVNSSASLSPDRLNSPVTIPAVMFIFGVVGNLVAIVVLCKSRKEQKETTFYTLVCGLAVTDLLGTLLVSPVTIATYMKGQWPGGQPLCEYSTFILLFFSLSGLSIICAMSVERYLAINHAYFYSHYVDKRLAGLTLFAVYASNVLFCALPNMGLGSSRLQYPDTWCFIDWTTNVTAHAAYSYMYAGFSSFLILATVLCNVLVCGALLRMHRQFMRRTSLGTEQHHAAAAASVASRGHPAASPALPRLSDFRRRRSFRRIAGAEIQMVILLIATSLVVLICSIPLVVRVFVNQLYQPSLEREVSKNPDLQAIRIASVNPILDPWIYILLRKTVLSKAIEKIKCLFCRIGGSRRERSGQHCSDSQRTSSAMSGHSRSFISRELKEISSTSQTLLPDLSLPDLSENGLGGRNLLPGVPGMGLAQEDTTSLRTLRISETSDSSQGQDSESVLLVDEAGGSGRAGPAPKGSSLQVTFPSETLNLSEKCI

## COc1ccc2cc(CC(O)/C=C/[C@H]3CCC(=O)[C@@H]3CCc3ccc(C(=O)O)cc3)ccc2c1 (stereo partly drawn) [Entry 16, (E)-4-(2-(2-(3-hydroxy-4-(6-methoxynaphthalen-2-yl)but-1-en-1-yl)-5-oxocyclopentyl)ethyl)benzoic acid]
[1]
  EC50: 728 nM
[2]
  Ki: 2660 nM
EP2 [3]
  EP2 Ki (nM): >10K

## O=C(O)c1ccc(CC[C@H]2C(=O)CC[C@@H]2/C=C/C(O)Cc2ccc(F)c(F)c2)cc1 (single isomer, unassigned) [Entry 24, (E)-4-(2-(2-(4-(3,4-difluorophenyl)-3-hydroxybut-1-en-1-yl)-5-oxocyclopentyl)ethyl)benzoic acid]
EP2 [4]
  EC50: 30 nM
[1]
  EC50: 0.3 nM
[2]
  Ki: 3 nM
EP3
  EC50: 1510 nM
TP
  EC50: 2450 nM
EP2 [3]
  Ki: 1530 nM

## O=C(O)c1ccc(CC[C@H]2C(=O)CC[C@@H]2/C=C/C(O)Cc2ccc3ccsc3c2)cc1 (stereo partly drawn) [Entry 15, (E)-4-(2-(2-(4-(benzo[b]thiophen-6-yl)-3-hydroxybut-1-en-1-yl)-5-oxocyclopentyl)ethyl)benzoic acid]
[1]
  EC50: 0.5 nM
[2]
  Ki: 41 nM
EP3
  EC50: 67 nM
TP
  OTHER RECEPTORS FLIPR EC50 (nM): TP: < 10000 nM
EP2 [3]
  EP2 Ki (nM): >10K

## O=C(O)c1ccc(CC[C@H]2C(=O)CC[C@@H]2/C=C/C(O)Cc2sc3ccccc3c2Cl)cc1 (single isomer, unassigned) [Entry 4, (E)-4-(2-(2-(4-(3-chlorobenzo[b]thiophen-2-yl)-3-hydroxybut-1-en-1-yl)-5-oxocyclopentyl)ethyl)benzoic acid]
EP2 [4]
  EP2 cAMP EC50 (nM): >10K
[1]
  EC50: 186 nM
[2]
  Ki: 603 nM
EP2 [3]
  EP2 Ki (nM): >10K

## O=C(O)c1ccc(CC[C@H]2C(=O)CC[C@@H]2/C=C/C(O)Cc2cc(F)ccc2F)cc1 (single isomer, unassigned) [Entry 27, (E)-4-(2-(2-(4-(2,5-difluorophenyl)-3-hydroxybut-1-en-1-yl)-5-oxocyclopentyl)ethyl)benzoic acid]
EP2 [4]
  EC50: 125 nM
[1]
  EC50: 18 nM
[2]
  Ki: 457 nM
EP2 [3]
  Ki: 3630 nM

## O=C(O)c1ccc(CC[C@H]2C(=O)CC[C@@H]2/C=C/C(O)Cc2cccc(C(F)(F)F)c2)cc1 (single isomer, unassigned) [Entry 12, (E)-4-(2-(2-(3-hydroxy-4-(3-(trifluoromethyl)phenyl)but-1-en-1-yl)-5-oxocyclopentyl)ethyl)benzoic acid]
EP2 [4]
  EC50: 35 nM
[1]
  EC50: 0.2 nM
[2]
  Ki: 1 nM
TP
  EC50: 218 nM
EP2 [3]
  Ki: 1310 nM

## COc1cc2ccccc2cc1CC(O)/C=C/[C@H]1CCC(=O)[C@@H]1CCc1ccc(C(=O)O)cc1 (stereo partly drawn) [Entry 17, (E)-4-(2-(2-(3-hydroxy-4-(3-methoxynaphthalen-2-yl)but-1-en-1-yl)-5-oxocyclopentyl)ethyl)benzoic acid]
[2]
  Ki: 4620 nM
EP2 [3]
  EP2 Ki (nM): >10K

## O=C(O)c1ccc(CC[C@H]2C(=O)CC[C@@H]2/C=C/C(O)Cc2ccccc2F)cc1 (single isomer, unassigned) [Entry 22, (E)-4-(2-(2-(4-(2-fluorophenyl)-3-hydroxybut-1-en-1-yl)-5-oxocyclopentyl)ethyl)benzoic acid]
EP2 [4]
  EC50: 8 nM
[1]
  EC50: 0.3 nM
[2]
  Ki: 4 nM
EP3
  EC50: 4670 nM
EP2 [3]
  Ki: 1030 nM

## O=C(O)c1ccc(CC[C@H]2C(=O)CC[C@@H]2/C=C/C(O)Cc2cc(F)ccc2F)cc1 (single isomer, unassigned) [Entry 28, (E)-4-(2-(2-(4-(2,5-difluorophenyl)-3-hydroxybut-1-en-1-yl)-5-oxocyclopentyl)ethyl)benzoic acid]
EP2 [4]
  EC50: 10 nM
[1]
  EC50: 0.2 nM
[2]
  Ki: 5 nM
EP3
  EC50: 5990 nM
EP2 [3]
  Ki: 1300 nM

## O=C(O)c1ccc(CC[C@H]2C(=O)CC[C@@H]2/C=C/C(O)Cc2cccc(F)c2)cc1 (single isomer, unassigned) [Entry 5, (E)-4-(2-(2-(4-(3-fluorophenyl)-3-hydroxybut-1-en-1-yl)-5-oxocyclopentyl)ethyl)benzoic acid]
EP2 [4]
  EC50: 78 nM
[1]
  EC50: 1 nM
[2]
  Ki: 40 nM
EP2 [3]
  Ki: 3420 nM

## O=C(O)c1ccc(CC[C@H]2C(=O)CC[C@@H]2/C=C/C(O)Cc2ccc(F)c(F)c2)cc1 (single isomer, unassigned) [Entry 23, (E)-4-(2-(2-(4-(3,4-difluorophenyl)-3-hydroxybut-1-en-1-yl)-5-oxocyclopentyl)ethyl)benzoic acid]
[1]
  EC50: 21 nM
[2]
  Ki: 293 nM
EP2 [3]
  Ki: 9320 nM

## O=C(O)c1ccc(CC[C@H]2C(=O)CC[C@@H]2/C=C/C(O)Cc2sc3ccccc3c2Cl)cc1 (single isomer, unassigned) [Entry 3, (E)-4-(2-(2-(4-(3-chlorobenzo[b]thiophen-2-yl)-3-hydroxybut-1-en-1-yl)-5-oxocyclopentyl)ethyl)benzoic acid]
EP2 [4]
  EP2 cAMP EC50 (nM): >10K
[1]
  EC50: 1280 nM
[2]
  Ki: 2310 nM
EP2 [3]
  EP2 Ki (nM): >10K

## O=C(O)c1ccc(CC[C@H]2C(=O)CC[C@@H]2/C=C/C(O)Cc2cccc(C(F)(F)F)c2)cc1 (single isomer, unassigned) [Entry 11, (E)-4-(2-(2-(3-hydroxy-4-(3-(trifluoromethyl)phenyl)but-1-en-1-yl)-5-oxocyclopentyl)ethyl)benzoic acid]
EP2 [4]
  EC50: 1010 nM
[1]
  EC50: 16 nM
[2]
  Ki: 90 nM
EP2 [3]
  Ki: 3160 nM

## O=C(O)c1ccc(CC[C@H]2C(=O)CC[C@@H]2/C=C/C(O)Cc2ccc(F)cc2)cc1 (single isomer, unassigned) [Entry 20, (E)-4-(2-(2-(4-(4-fluorophenyl)-3-hydroxybut-1-en-1-yl)-5-oxocyclopentyl)ethyl)benzoic acid]
EP2 [4]
  EC50: 11 nM
[1]
  EC50: 0.2 nM
[2]
  Ki: 3 nM
EP3
  EC50: 952 nM
TP
  EC50: 5600 nM
EP2 [3]
  Ki: 745 nM

## O=C(O)c1ccc(CC[C@H]2C(=O)CC[C@@H]2/C=C/C(O)Cc2ccc3ccccc3c2)cc1 (single isomer, unassigned) [Entry 1]
[1]
  EC50: 1 nM
[2]
  Ki: 0.8 nM
EP2 [3]
  EP2 Ki (nM): >10K

## O=C(O)c1ccc(CC[C@H]2C(=O)CC[C@@H]2/C=C/C(O)Cc2ccc3ccccc3c2)cc1 (single isomer, unassigned) [Entry 2]
[1]
  EC50: 21 nM
[2]
  Ki: 10 nM
EP2 [3]
  EP2 Ki (nM): >10K

## O=C(O)c1ccc(CC[C@H]2C(=O)CC[C@@H]2/C=C/C(O)Cc2cccc(F)c2F)cc1 (single isomer, unassigned) [Entry 26, (E)-4-(2-(2-(4-(2,3-difluorophenyl)-3-hydroxybut-1-en-1-yl)-5-oxocyclopentyl)ethyl)benzoic acid]
EP2 [4]
  EC50: 8 nM
[1]
  EC50: 0.2 nM
[2]
  Ki: 2 nM
EP3
  EC50: 9950 nM
EP2 [3]
  Ki: 1240 nM

## O=C(O)c1ccc(CC[C@H]2C(=O)CC[C@@H]2/C=C/C(O)Cc2cccc(Cl)c2)cc1 (stereo partly drawn) [Entry 7, (E)-4-(2-(2-(4-(3-chlorophenyl)-3-hydroxybut-1-en-1-yl)-5-oxocyclopentyl)ethyl)benzoic acid]
EP2 [4]
  EC50: 123 nM
[1]
  EC50: 2 nM
[2]
  Ki: 2 nM
TP
  EC50: 4830 nM
EP2 [3]
  Ki: 2760 nM

## O=C(O)c1ccc(CC[C@H]2C(=O)CC[C@@H]2/C=C/C(O)Cc2cccc(F)c2F)cc1 (single isomer, unassigned) [Entry 25, (E)-4-(2-(2-(4-(2,3-difluorophenyl)-3-hydroxybut-1-en-1-yl)-5-oxocyclopentyl)ethyl)benzoic acid]
EP2 [4]
  EC50: 164 nM
[1]
  EC50: 30 nM
[2]
  Ki: 585 nM
EP2 [3]
  Ki: 3150 nM

## COc1ccc2ccc(CC(O)/C=C/[C@H]3CCC(=O)[C@@H]3CCc3ccc(C(=O)O)cc3)cc2c1 (stereo partly drawn) [Entry 18, (E)-4-(2-(2-(3-hydroxy-4-(7-methoxynaphthalen-2-yl)but-1-en-1-yl)-5-oxocyclopentyl)ethyl)benzoic acid]
[1]
  EC50: 2 nM
[2]
  Ki: 9 nM
EP2 [3]
  EP2 Ki (nM): >10K

## O=C(O)c1ccc(CC[C@H]2C(=O)CC[C@@H]2/C=C/C(O)Cc2cccc(Br)c2)cc1 (single isomer, unassigned) [Entry 10, (E)-4-(2-(2-(4-(3-bromophenyl)-3-hydroxybut-1-en-1-yl)-5-oxocyclopentyl)ethyl)benzoic acid]
EP2 [4]
  EC50: 26 nM
EP3
  EC50: 180 nM
TP
  EC50: 108 nM
EP2 [3]
  Ki: 947 nM

## O=C(O)c1ccc(CC[C@H]2C(=O)CC[C@@H]2/C=C/C(O)Cc2cccc(F)c2)cc1 (single isomer, unassigned) [Entry 6, (E)-4-(2-(2-(4-(3-fluorophenyl)-3-hydroxybut-1-en-1-yl)-5-oxocyclopentyl)ethyl)benzoic acid]
EP2 [4]
  EC50: 10 nM
[1]
  EC50: 0.04 nM
[2]
  Ki: 2 nM
EP3
  EC50: 721 nM
TP
  EC50: 7190 nM
EP2 [3]
  Ki: 1780 nM

## O=C(O)c1ccc(CC[C@H]2C(=O)CC[C@@H]2/C=C/C(O)Cc2ccc(F)cc2)cc1 (single isomer, unassigned) [Entry 19, (E)-4-(2-(2-(4-(4-fluorophenyl)-3-hydroxybut-1-en-1-yl)-5-oxocyclopentyl)ethyl)benzoic acid]
[1]
  EC50: 38 nM
[2]
  Ki: 902 nM
EP2 [3]
  Ki: 9290 nM

## O=C(O)c1ccc(CC[C@H]2C(=O)CC[C@@H]2/C=C/C(O)Cc2cccc(Br)c2)cc1 (single isomer, unassigned) [Entry 9, (E)-4-(2-(2-(4-(3-bromophenyl)-3-hydroxybut-1-en-1-yl)-5-oxocyclopentyl)ethyl)benzoic acid]
EP2 [4]
  EC50: 278 nM
EP2 [3]
  Ki: 1450 nM

## O=C(O)c1ccc(CC[C@H]2C(=O)CC[C@@H]2/C=C/C(O)Cc2ccccc2F)cc1 (single isomer, unassigned) [Entry 21, (E)-4-(2-(2-(4-(2-fluorophenyl)-3-hydroxybut-1-en-1-yl)-5-oxocyclopentyl)ethyl)benzoic acid]
EP2 [4]
  EC50: 76 nM
[1]
  EC50: 4 nM
[2]
  Ki: 64 nM
EP2 [3]
  Ki: 2220 nM
